Measurements from patent US9868717B2, “Tricyclic sulphonamide compounds and methods of making and using same” (Zafgen, Inc., priority 2012, dated 2018).

The compounds below were run against T1, Human recombinant MetAP2 (Homo sapiens, UniProt P50579) (assay: inhibition of recombinant human MetAP2 activity (MAS substrate, amino acid oxidase/Amplex red fluorescence)). Settings: manganese enzyme, 30 minutes at 25° C., pH 7.5, 0.75 mM MAS substrate, 1% DMSO.
T1 construct: made in house; host or cells: Sf9 insect cells
T1 sequence (P50579 whole entry): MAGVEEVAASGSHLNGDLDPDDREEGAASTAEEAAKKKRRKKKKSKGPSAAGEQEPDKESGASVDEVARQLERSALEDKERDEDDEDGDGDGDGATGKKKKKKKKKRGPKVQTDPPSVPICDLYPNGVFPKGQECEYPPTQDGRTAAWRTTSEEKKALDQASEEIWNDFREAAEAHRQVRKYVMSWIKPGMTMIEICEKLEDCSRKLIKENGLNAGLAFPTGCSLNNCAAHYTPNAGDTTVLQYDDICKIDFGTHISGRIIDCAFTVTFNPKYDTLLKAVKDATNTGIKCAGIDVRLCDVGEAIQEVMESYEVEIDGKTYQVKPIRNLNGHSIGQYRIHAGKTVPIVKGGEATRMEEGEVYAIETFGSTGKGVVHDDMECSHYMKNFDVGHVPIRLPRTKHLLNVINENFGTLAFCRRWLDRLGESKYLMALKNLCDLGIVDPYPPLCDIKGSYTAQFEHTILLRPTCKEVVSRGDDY
Type: biochemical
Description: Compounds are tested for their capacity to inhibit recombinant human MetAP2 activity using the following assay.
Human recombinant MetAP2 expressed in Sf9 cells followed by affinity purification and EDTA treatment to remove endogenous active site cation was dialysed against MnCl2 to produce the manganese enzyme used in the assay. The assay was carried out for 30 minutes at 25° C. in 50 mM HEPES buffer containing 100 mM NaCl, pH 7.5 the presence of 0.75 mM Methionine-Alanine-Serine (MAS) substrate and 50 μg/ml amino acid oxidase using a dilution of purified MetAP2 giving >3-fold signal:noise. Cleavage of the substrate by MetAP2 and oxidation of free methionine by amino acid oxidase was detected and quantified using fluorescence generated by Amplex red (10-acetyl-3,7-dihydroxyphenoxazine) in combination with horseradish peroxidase which detects H2O2 released during the oxidation step. The fluorescent signal was detected using a multiwell fluorimeter. Compounds were diluted in DMSO prior to addition to assay buffer, the final DMSO concentration in the assay being 1%.
The IC50 is defined as the concentration at which a given compound achieves 50% inhibition of control. IC50 values are calculated using the XLfit software package (version 2.0.5).

Row | Structure (SMILES) | IC50 [nM]
1 | CCN1CC2C(C1)C2c1cc(F)ccc1S(=O)(=O)Nc1ccc2c(c1C(=O)O)OC[C@@H]1C[C@H]21 (stereo partly drawn) [Example 23, (1aR,7bS)-5-[2-(3-Ethyl-3-azabicyclo[3.1.0]hex-6-yl)-4-fluorobenzene-sulfonylamino]-1,1a,2,7b-tetrahydrocyclopropa[c]chromene-4-carboxylic acid] | 50 to 500
2 | O=C(O)c1c(NS(=O)(=O)c2ccc(F)cc2C2CC2CN2CCCC2)ccc2c1OC[C@@H]1C[C@H]21 (stereo partly drawn) [Example 4, (1aR,7bS)-5-{4-Fluoro-2-[2-(pyrrolidin-1-ylmethyl)cyclopropyl]benzene-sulfonylamino}-1,1a,2,7b-tetrahydrocyclopropa[c]chromene-4-carboxylic acid] | 50 to 500
3 | CCN1CCC/C(=C/c2cc(F)ccc2S(=O)(=O)Nc2ccc3c(c2C(=O)O)OC[C@@H]2C[C@H]32)C1 (single isomer, unassigned) [Example 13] | 50 to 500
4 | O=C(O)c1c(NS(=O)(=O)c2ccc(F)cc2/C=C\CN2CCC(O)CC2)ccc2c1OC[C@@H]1C[C@H]21 [Example 21, (1aR,7bS)-5{4-Fluoro-2-[(Z)-3-(4-hydroxypiperidin-1-yl)prop-1-enyl]benzenesulfonylamino}-1,1a,2,7b-tetrahydrocyclopropa[c]chromene-4-carboxylic acid] | 50 to 500
5 | CCN1[C@@H]2CC[C@H]1C[C@@H](Cc1cc(F)ccc1S(=O)(=O)Nc1ccc3c(c1C(=O)O)OC[C@@H]1C[C@H]31)C2 (single isomer, unassigned) [Example 18] | < 50
6 | CCN1CCC[C@@H]1CCc1cc(F)ccc1S(=O)(=O)Nc1ccc2c(c1C(=O)O)OC[C@@H]1C[C@H]21 [Example 16, (1aR,7bS)-5-{2-[2-((S)-1-Ethylpyrrolidin-2-yl)ethyl]-4-fluorobenzene-sulfonylamino}-1,1a,2,7b-tetrahydrocyclopropa[c]chromene-4-carboxylic acid] | < 50
7 | CC1(O)CCN(C/C=C\c2cc(F)ccc2S(=O)(=O)Nc2ccc3c(c2C(=O)O)OC[C@@H]2C[C@H]32)CC1 [Example 22, (1aR,7bS)-5-{4-Fluoro-2-[(Z)-3-(4-hydroxy-4-methylpiperidin-1-yl)prop-1-enyl]benzenesulfonylamino}-1,1a,2,7b-tetrahydrocyclopropa[c]chromene-4-carboxylic acid] | 50 to 500
8 | CCN(CC)CC1CC1c1cc(F)ccc1S(=O)(=O)Nc1ccc2c(c1C(=O)O)OC[C@@H]1C[C@H]21 (stereo partly drawn) [Example 1, (1aR,7bS)-5-[2-(2-Diethylaminomethylcyclopropyl)-4-fluorobenzenesulfonyl-amino]-1,1a,2,7b-tetrahydrocyclopropa[c]chromene-4-carboxylic acid] | 50 to 500
9 | O=C(O)c1c(NS(=O)(=O)c2ccc(F)cc2CC2CN3CCC2CC3)ccc2c1OC[C@@H]1C[C@H]21 (stereo partly drawn) [Example 9, (1aR,7bS)-5-[2-(1-Azabicyclo[2.2.2]oct-3-ylmethyl)-4-fluorobenzenesulfonyl-amino]-1,1a,2,7b-tetrahydrocyclopropa[c]chromene-4-carboxylic acid] | < 50
10 | CC(C)(O)[C@@H]1CCN(C/C=C\c2cc(F)ccc2S(=O)(=O)Nc2ccc3c(c2C(=O)O)OC[C@@H]2C[C@H]32)C1 [Example 28, (1aR,7bS)-5-(4-Fluoro-2-{(Z)-3-[(R)-3-(2-hydroxypropan-2-yl)pyrrolidin-1-yl]prop-1-enyl}benzenesulfonylamino)-1,1a,2,7b-tetrahydrocyclopropa[c]chromene-4-carboxylic acid] | < 50
11 | O=C(O)c1c(NS(=O)(=O)c2ccc(F)cc2/C=C\CN2CC[C@H](CO)C2)ccc2c1OC[C@@H]1C[C@H]21 [Example 25, (1aR,7bS)-5-{4-Fluoro-2-[(Z)-3-((S)-3-hydroxymethylpyrrolidin-1-yl)prop-1-enyl]benzenesulfonylamino}-1,1a,2,7b-tetrahydrocyclopropa[c]chromene-4-carboxylic acid] | < 50

More lines, now with the values ahead:

Row | IC50 [nM] | Structure (SMILES)
12 | < 50 | CC(C)(O)CN1CC[C@@H](Cc2cc(F)ccc2S(=O)(=O)Nc2ccc3c(c2C(=O)O)OC[C@@H]2C[C@H]32)C1 [Example 8, (1aR,7bS)-5-{4-Fluoro-2-[(R)-1-(2-hydroxy-2-methylpropyl)pyrrolidin-3-ylmethyl]benzenesulfonylamino}-1,1a,2,7b-tetrahydrocyclopropa[c]chromene-4-carboxylic acid]
13 | < 50 | CCN1CCC/C(=C\c2cc(F)ccc2S(=O)(=O)Nc2ccc3c(c2C(=O)O)OC[C@@H]2C[C@H]32)C1 (single isomer, unassigned) [Example 12]
14 | < 50 | CCN1[C@@H]2CC[C@H]1C[C@H](Cc1cc(F)ccc1S(=O)(=O)Nc1ccc3c(c1C(=O)O)OC[C@@H]1C[C@H]31)C2 (single isomer, unassigned) [Example 19]
15 | < 50 | CCN(CC)CC(C)(C)Cc1cc(F)ccc1S(=O)(=O)Nc1ccc2c(c1C(=O)O)OC[C@@H]1C[C@H]21 [Example 5, (1aR,7bS)-5-[2-(3-Diethylamino-2,2-dimethylpropyl)-4-fluorobenzenesulfonyl-amino]-1,1a,2,7b-tetrahydrocyclopropa[c]chromene-4-carboxylic acid]
16 | < 50 | CCN1CCCC(Cc2cc(F)ccc2S(=O)(=O)Nc2ccc3c(c2C(=O)O)OCC2CC32)C1 (single isomer, unassigned) [Example 15]
17 | < 50 | CCN1CC[C@@H](NCCc2cc(F)ccc2S(=O)(=O)Nc2ccc3c(c2C(=O)O)OC[C@@H]2C[C@H]32)C1 [Example 33, (1aR,7bS)-5-{2-[2-((R)-1-ethylpyrrolidin-3-ylamino)ethyl]-4-fluoro-benzene-sulfonylamino}-1,1a,2,7b-tetrahydrocyclopropa[c]chromene-4-carboxylic acid-formic acid (1:1)]
18 | < 50 | CCN1CC[C@@H](Cc2ccccc2S(=O)(=O)Nc2ccc3c(c2C(=O)O)OC[C@@H]2C[C@H]32)C1 [Example 31, (1aR,7bS)-5-[2-((3R)-1-Ethylpyrrolidin-3-ylmethyl)benzenesulfonylamino]-1,1a,2,7b-tetrahydrocyclopropa[c]chromene-4-carboxylic acid]
19 | < 50 | O=C(O)c1c(NS(=O)(=O)c2ccc(F)cc2C[C@H]2CCNC2)ccc2c1OC[C@@H]1C[C@H]21 [Example 7, (1aR,7bS)-5-[4-Fluoro-2-((S)-pyrrolidin-3-ylmethyl)benzenesulfonylamino]-1,1a,2,7b-tetrahydrocyclopropa[c]chromene-4-carboxylic acid]
20 | < 50 | CCN1CCCC(Cc2cc(F)ccc2S(=O)(=O)Nc2ccc3c(c2C(=O)O)OCC2CC32)C1 (single isomer, unassigned) [Example 14]
21 | < 50 | O=C(O)c1c(NS(=O)(=O)c2ccc(F)cc2/C=C\CN2CC[C@@H](CO)C2)ccc2c1OC[C@@H]1C[C@H]21 [Example 26, (1aR,7bS)-5-{4-Fluoro-2-[(Z)-3-((R)-3-hydroxymethylpyrrolidin-1-yl)prop-1-enyl]benzenesulfonylamino}-1,1a,2,7b-tetrahydrocyclopropa[c]chromene-4-carboxylic acid]
22 | < 50 | CCN1CCC(NC(=O)Cc2cc(F)ccc2S(=O)(=O)Nc2ccc3c(c2C(=O)O)OC[C@@H]2C[C@H]32)C1 (stereo in doubt) [Example 30, (1aR,7bS)-5-{2-[((S)-1-Ethylpyrrolidin-3-ylcarbamoyl)methyl]-4-fluoro-benzenesulfonylamino}-1,1a,2,7b-tetrahydrocyclopropa[c]chromene-4-carboxylic acid]
23 | < 50 | CC(C)(O)[C@H]1CCN(C/C=C\c2cc(F)ccc2S(=O)(=O)Nc2ccc3c(c2C(=O)O)OC[C@@H]2C[C@H]32)C1 [Example 27, (1aR,7bS)-5-(4-Fluoro-2-{(Z)-3-[(S)-3-(2-hydroxypropan-2-yl)pyrrolidin-1-yl]prop-1-enyl}benzenesulfonylamino)-1,1a,2,7b-tetrahydrocyclopropa[c]chromene-4-carboxylic acid]
24 | < 50 | O=C(O)c1c(NS(=O)(=O)c2ccc(F)cc2CC2CC3CCCN3C2)ccc2c1OC[C@@H]1C[C@H]21 (stereo partly drawn) [Example 29, (1aR,7bS)-5-[4-Fluoro-2-(hexahydro-1H-pyrrolizin-2-ylmethyl)benzene-sulfonylamino]-1,1a,2,7b-tetrahydrocyclopropa[c]chromene-4-carboxylic acid]
25 | < 50 | O=C(O)c1c(NS(=O)(=O)c2ccc(F)cc2C[C@@H]2CCN(CCO)C2)ccc2c1OC[C@@H]1C[C@H]21 [Example 17, (1aR,7bS)-5-{4-Fluoro-2-[(R)-1-(2-hydroxyethyl)pyrrolidin-3-ylmethyl]-benzenesulfonylamino}-1,1a,2,7b-tetrahydrocyclopropa[c]chromene-4-carboxylic acid]

Same assay, conditions: manganese enzyme, 30 minutes at 25° C., pH 7.5, 0.75 mM MAS substrate, 1% DMSO; listed as First eluting enantiomer of (1aR,7bS)-5-[2-(2-diethylamino-methylcyclopropyl)-4-

Row | IC50 [nM] | Structure (SMILES)
26 | < 50 | CCN(CC)CC1CC1c1cc(F)ccc1S(=O)(=O)Nc1ccc2c(c1C(=O)O)OC[C@@H]1C[C@H]21 (stereo partly drawn) [Example 2]

Same assay, conditions: manganese enzyme, 30 minutes at 25° C., pH 7.5, 0.75 mM MAS substrate, 1% DMSO; listed as Second eluting enantiomer of (1aR,7bS)-5-[2-(2-diethylamino-methylcyclopropyl)-4

Row | IC50 [nM] | Structure (SMILES)
27 | 50 to 500 | CCN(CC)CC1CC1c1cc(F)ccc1S(=O)(=O)Nc1ccc2c(c1C(=O)O)OC[C@@H]1C[C@H]21 (stereo partly drawn) [Example 3]
